Experimental data published in patent publication US20240009168A1 (Cognition Therapeutics, Inc., priority 2020, published 2024).

Assays:
RPE cell cultures [1] = assay: Autophagy assays: POS trafficking, colocalization of POS with LC3B; type: cell-based
Description: FIGS. 2A and 2B depict photoreceptor outer segment trafficking after treatment with Abeta oligomers in the presence or absence of sigma 2 receptor modulators (FIG. 2A=Compound A and Compound C; FIG. 2B=Compound B).
FIGS. 3A and 3B depict photoreceptor outer segment trafficking after treatment with an oxidative stressor in the presence or absence of sigma 2 receptor modulators (FIG. 3A=Compound A and Compound C; FIG. 3B=Compound B).
Autophagy Assays: Autophagy assays were performed in accordance with Klionsky et al., “Guidelines for the Use and Interpretation of Assays for Monitoring Autophagy,” (4th edition) Autophagy 2021; 17:1-382, which is hereby incorporated by reference in its entirety. RPE cultures were treated with human oligomeric Aβ in either the presence or absence of compounds of the invention. POS trafficking was measured over time after the addition of POS to RPE cell cultures. Stressors included addition of Aβ oligomers or H2O2 for 12 to 48 hours. […] This process was disrupted by addition of stressors such as Aβ oligomers (FIGS. 2A and 2B) or oxidative stress (FIGS. 3A and 3B).

RPE cell cultures [2] = assay: Quantification of an autophagy related protein after oxidative stressor; type: cell-based; settings: after oxidative stressor (FIG. 4)
Description: FIG. 4 depicts quantification of an autophagy-related protein after oxidative stress by an oxidative stressor in the presence or absence of sigma-2 receptor modulators.
Oxidative stressors are associated with pathology in AMD with changes seen in autophagy associated proteins. Application of an oxidative stressor caused increased expression of an autophagy related protein acutely (FIG. 4).

sigma-2 receptors = biological target: T1, sigma-2 receptors (Mus musculus, UniProt Q8VD00); assay: Drug concentration in plasma, brain and retina; type: in vivo
T1 sequence (Q8VD00 1-176): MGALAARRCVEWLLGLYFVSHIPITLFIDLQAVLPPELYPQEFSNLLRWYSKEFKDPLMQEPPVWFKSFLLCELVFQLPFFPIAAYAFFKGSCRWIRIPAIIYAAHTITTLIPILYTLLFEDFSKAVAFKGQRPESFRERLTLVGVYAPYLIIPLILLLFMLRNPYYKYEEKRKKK
Description: FIG. 6 depicts quantification of the concentration of the sigma-2 receptor modulator Compound A in mouse plasma, brain, and retina.
FIG. 7 depicts quantification of the concentration of the sigma-2 receptor modulator, Compound B, in mouse plasma, brain and retina.
Following a single oral administration of [14C]-Compound A to a rat, autoradiography was performed to determine tissue distribution. […] Receptor occupancy exceeding 80% confers efficacy in vivo. Drug concentration in the brain (cerebellum), retina, and plasma were also measured. […] Similarly, following a single orally administered dose, Compound B was found in concentrations that exceeded 80% receptor occupancy at sigma-2 receptors in the retina and plasma and approximately 50% occupancy in the brain (FIG. 7).

retinal ganglion cells [3] = assay: In vivo model of glaucoma: pattern electroretinogram (PERG); settings: p<0.05 (FIGS. 9A and 9B)
Description: FIGS. 9A and 9B depict quantification of electrical activity in retinal ganglion cells in an in vivo model of glaucoma in the presence or absence of sigma-2 receptor modulator.
(§1) In vivo models of glaucoma (Shah, M., et al., “Translational Preclinical Pharmacologic Disease Models for Opthalmic Drug Development,” Development. Pharm. Res. 36(4): 58 (2019); which is hereby incorporated by reference in its entirety) were used to test the utility of sigma-2 receptor modulators.
Glaucoma can cause perturbations in the electrical activity of the retina. To measure the electrical activity, a pattern electroretinogram (PERG) measure electrical activity of the retina in response to a test stimulus, such as a reversing checkerboard. PERG is a noninvasive, direct, and objective method to assess retinal ganglion cell function. An in vivo model of glaucoma causes a functional deficit in retinal ganglion cells (injured vs. naïve), resembling what is seen in patients with glaucoma and other retinal diseases.

retinal ganglion cells [4] = assay: In vivo model of glaucoma: retinal ganglion cell counts; settings: p<0.05 (FIG. 8)
Description: FIG. 8 depicts quantification of retinal ganglion cell density in an in vivo model of glaucoma in the presence or absence of sigma-2 receptor modulator.
as §1
To test whether sigma-2 receptor modulators can rescue cell death, in vivo models were used to cause cell death of retinal ganglion cells, resembling what is seen in patients with glaucoma and other retinal diseases.

[5] = oxidative stress, H2O2 (FIGS. 3A and 3B)
[6] = stressor Aβ oligomers (FIGS. 2A and 2B)

Row | Structure (SMILES) | POS trafficking into autophagosomes (colocalization of POS with LC3B) (RPE cell cultures [1]; [5]) | POS trafficking into autophagosomes (colocalization of POS with LC3B) (RPE cell cultures [1]; [6]) | expression of an autophagy related protein (RPE cell cultures [2]) | concentration in the retina relative to brain (cerebellum) and plasma (sigma-2 receptors; mouse (FIG. 6)) | retinal ganglion cell function (PERG electrical activity) (retinal ganglion cells [3]) | occupancy at sigma-2 receptors in the brain (sigma-2 receptors; mouse (FIG. 7), single orally administered dose) | retinal ganglion cell counts (retinal ganglion cells [4])
1 | CC(C)(C)Oc1cc(CCC(C)(C)N2Cc3ccc(S(C)(=O)=O)cc3C2)ccc1O [Compound A] | restored normal trafficking into autophagosomes after stress | restored normal trafficking into autophagosomes after stress | prevented the increase in this autophagy related protein | higher than the concentration in the brain or plasma | preserves retinal ganglion cell function |  | 
2 | CC(C)=C[C@@H](CC(C)(C)c1ccc(C(F)(F)F)cc1)N1CCC(C2CCOCC2)CC1 [Compound C] | restored normal trafficking into autophagosomes after stress | restored normal trafficking into autophagosomes after stress | prevented the increase in this autophagy related protein |  |  |  | 
3 | CC1(O)CCN(CCC(C)(C)c2ccc(C(F)(F)F)cc2)CC1 [Compound B] |  |  |  |  |  | approximately 50% | significantly preserved retinal ganglion cells counts
